Like-named read-outs stand apart in the source and are kept apart here.
Experiments:
HT22 cells = experiment: In vitro ischemia assay (HT22 cell IAA assay, MTT); assay type: cell-based, mouse; details: 20 μM IAA; for EC50: read-out: HT22 Cell IAA assay EC50; for percent protection from IAA-induced cell death at 0.1 µM: HT-22, compound 100 nM
Procedure, shortened: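 Mouse HT22 hippocampal cells in DMEM/7.5% DFCS exposed 2 hr to 20 μM iodoacetic acid with or without derivative, then 20 hr in IAA-free medium still containing derivative. Viability by MTT (2.5 μg/ml, 4 hr, 37 °C), absorbance at 570 nm.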

[1] = tested on: primary mouse cortical neurons; experiment: Primary cortical cell glutamate excitotoxicity assay; assay type: cell-based; details: 10 μM glutamate, compound 100 nM
Procedure: (§1) FIG. 5 illustrates pharmacological effects of Baicalein on cultured cells. (A) Trophic factor withdrawal. Primary cortical neurons are prepared from 18-day-old rat embryos, and cultured at low cell density 1×10^6/35 mm dish, in serum containing medium with Baicalein (10-10,000 nM), and viability assayed 2 days later using a live-dead assay. (B) Excitotoxicity assay was done with E14 mouse primary cortical neuron cultures. After 11 days of culture, cells were exposed to 10 μM glutamate for 10 min, followed by the addition of varying concentrations of Baicalein (0.2-5 μM). Cell viability was determined 24 hr later with a standard MTT assay. (C) PC12 cells were glucose-deprived then were incubates in the absence or presence of Baicalein. Cell viability was determined 24 hr later using the MTT assay. (D) RCG-5 nerve cells were treated with 30 μM iodoacetic acid for 2 hr in the presence or absence of 5-25 μM Baicalein. In some experiments, Baicalein was added 2 hr after the ischemic event. Cell survival (%) was measured after 24 hr by the MTT assay. Baicalein added before (□) or 2 hr after ([…]) ischemia.
Primary cultures of cortical neurons that die due to excitotoxicity were prepared as described previously. Briefly, BALB/c mouse embryo cortices were minced and treated with 0.1% trypsin for 20 min. After centrifugation, the cells are resuspended in 827 Neurobasal medium (Invitrogen) plus 10% fetal calf serum and are dissociated by repeated pipetting through a 1 mL blue Eppendorf pipette tip. Then the cells are plated at 1×10^5 cells per well in 96-well poly-L-lysine and laminin-coated microtiter plates (Becton Dickinson, Bedford, Mass., USA) in 827 Neurobasal plus 10% fetal calf serum and 20% glial growth-conditioned medium. Two days later the medium is aspirated and replaced by serum-free 827 Neurobasal medium plus 10 μg/mL cytosine arabinoside. The cultures are used without media change 11 days after plating and are essentially free of astrocytes. They are exposed to 10 μM glutamate followed by varying concentrations of the compounds. Cell viability is determined 24 h later using the fluorescent live/dead assay. Glial conditioned medium is prepared from confluent rat astrocyte cultures. The cells are washed twice with serum-free medium and incubated for 2 days in serum-free Neurobasal medium to produce the growth conditioned medium.
(1) ≧80% cell survival in mouse HT22 hippocampal cells in the presence of 20 μM iodoacetic acid (IAA) (in vitro ischemia model). See, Maher, et al., Brain Res. 2007, 1173:117-25. (2) ≧35% cell survival in primary mouse cortical neurons in the presence of 10 μM glutamate (in vitro excitotoxicity assay). See, Ishige, et al., Free Radic Biol Med, 2001, 30(4): p. 433-46.

PC12 cells = experiment: Glucose starvation; assay type: cell-based; details: MTT 24 hr
Procedure: as §1, with “ischemia. […] When these cells are starved for glucose, there is approximately 70% maximal survival in the presence of NGF. Baicalein promotes over 80% survival (FIG. 5C).” for “ischemia.”

Row | Molecule | EC50 (HT22 cells; HT22 cells) [nM] | EC50 (HT22 cells; Mus musculus, HT-22, HT22 cells) [nM] | percent protection from IAA-induced cell death at 0.1 µM (HT22 cells; Mus musculus) [%] | Primary Cortical Cell assay-Glutamate (% protection @ 100 nM) [1] [%] | survival of glucose-starved cells (PC12 cells)
1 | CCCc1ccc2oc(-c3ccc(O)c(O)c3)c(O)c(=O)c2c1 [PM-012, 2-(3,4-dihydroxyphenyl)-3-hydroxy-6-propyl-4H-chromen-4-one] | 61 | 38 | 80 | 82 | 
2 | CCc1ccc2oc(-c3ccc(O)c(O)c3)c(O)c(=O)c2c1 [PM-013, 2-(3,4-dihydroxyphenyl)-6-ethyl-3-hydroxy-4H-chromen-4-one] | 61 |  | 81 | 51 | 
3 | NGF: NGF, comparator in the PC12 glucose starvation assay |  |  |  |  | approximately 70%
4 | Cc1ccc2oc(-c3ccc(O)c(O)c3)c(O)c(=O)c2c1 [PM-010, 2-(3,4-dihydroxyphenyl)-3-hydroxy-6-methyl-4H-chromen-4-one] | 46 |  | 89 | 65 | 
5 | O=c1cc(-c2cc(O)c(O)c(O)c2)oc2ccccc12 [PM-008, 3′,4′,5′-trihydroxyflavone] | 42 |  | 88 | 100 | 
